The source of these data is patent US8815946B2, “Inhibition of proliferation and fibrotic response of activated corneal stromal cells” (University of Pittsburgh—of the Commonwealth System of …, priority 2008, dated 2014).

Entries after “also recorded” stand apart in the source; their conditions may differ.

Assay type in all cases: cell-based
For test [1], the system named is rabbit corneal stromal cells. As to the kind of experiment: Cell proliferation analysis, rabbit corneal stromal cells. Conditions: 1% FBS, with TGF-β1 or b-FGF/HS. On the procedure: FIG. 2. Effect of ethyl pyruvate on the growth of rabbit corneal stromal cells. Corneal stromal cells in P2 growing in DMEM/F12 with 10% FBS were subcultured into desired number of 35 mm tissue culture dishes. After 24 hrs of incubation, the media were replaced with DMEM/F12 medium containing 1% FBS without EP (labeled “Control), with EP (labeled “Control+EP”); with the same medium containing TGF-β1 without EP (labeled “TGF-β1”) or with EP (labeled “TGF-β1+EP”); or with the same medium containing b-FGF/HS without EP (labeled “FGF/HS”) or with EP (labeled “FGF/HS+EP”). The cells in several marked regions were counted every 24 hours as described in Methods. […]
To study the effect of EP on cell proliferation, normal human corneal fibroblasts growing in DMEM/F12 with 10% FBS were subcultured into the desired number of 35 mm tissue culture dishes at a density of 5×10^4 cells/per dish. […] Several regions were marked on the bottom of the dishes and cells in marked regions were counted at 24 hr intervals for five days. Phase contrast digital micrographs of the cells in the marked fields were captured and the cells in the images were counted using MetaMorph® imaging software. The rate of proliferation was evaluated by determining the number of cells at specific time points after treatment/number of cells at the start of the treatment. […]

Test [2] has as its system type III collagen, tenascin and fibronectin. Description: Western blot of TGF-β1 activated rabbit corneal keratocytes: type III collagen, tenascin, fibronectin. The conditions noted are these: TGF-β1 (10 ng/ml)+1% FBS, two days, compared to controls with no treatment. On the procedure:
(§1) FIGS. 19A and 19B. Western blot analyses: Rabbit corneal keratocytes were isolated and cultured in serum-free DMEM/F12 into 60 mm tissue culture dishes. After 24 hrs of incubation, the media were replaced with DMEM/F12 medium containing TGF-β1(10 ng/ml)+1% FBS without (control) or with EP or EP-derivatives for two days. The cells were extracted in RIPA buffer and the extracts containing 5 μg of total proteins were loaded per lane for Western blot analysis.
(§2) Keratocytes or fibroblasts grown under different culture conditions were extracted in RIPA buffer (9.1 mM dibasic sodium phosphate, 1.7 mM monobasic sodium phosphate, 150 mM NaCl, pH, 7.4, 1% Nonidet P-40, 0.5% sodium deoxycholate, 0.1% SDS, 0.03 TIU/mL aprotinin, 1 mM sodium orthovanadate, and 100 μg/mL phenylmethylsulfonyl fluoride (PMSF)). Aliquots of cell extracts containing 50 or 100 μg protein were subjected to SDS-PAGE. Protein bands on SDS-PAGE were electrophoretically transferred to IMMOBILON-P™ membrane (Millipore Corp., Bedford, Mass.), stained with 0.1% Coomassie blue 250 in 40% methanol/1% acetic acid for 1 minute, destained one to three times with 50% methanol/1% acetic acid, scanned for densitometric comparisons of relative concentrations of proteins per lane, destained with methanol, and subjected to Western blot analysis. Immunoreactive bands were detected using chemiluminescence Western chemiluminescence reagents.
(§3) As described in Example 1, corneal stromal cells were isolated from rabbit corneas and cultured using the same procedures. The keratocytes in serum free media were treated with b-FGF (40 ng/ml)+HS (5 μg/ml) with or without 15 mM EP or 1, 2.5 or 5 mM following EP derivatives: 2-oxopropionic acid 3-methoxyphenyl ester, 2-oxopropionic acid 2-ethoxyethyl ester, 2-oxopropionic acid 2-chloroethyl ester, 2-oxopropionic acid isopropyl ester, 2-oxopropionic acid butyl ester, 2-oxopropionic acid p-tolyl ester, 2-oxopropionic acid tert-butyl ester. […] The relative levels of the expression of specific proteins were analyzed by Western blot analyses of the cell lysates as described supra.
On the technique in general: In western blotting, separated proteins are transferred to a membrane and probed.

Test [3] concerns alpha-smooth muscle actin. As to the kind of experiment: Western blot of TGF-β1 activated rabbit corneal keratocytes: alpha-smooth muscle actin. Conditions: TGF-β1 (10 ng/ml)+1% FBS, two days, compared to controls with no treatment, listed as EP. On the procedure: as §1, §2, §3

In the case of `CCOC(=O)C(C)=O` [ethyl pyruvate], the “proliferation of rabbit stromal cells” value in test [1] is reported as “inhibited proliferation”. In addition, the “levels of type III collagen, tenascin and fibronectin (Western blot)” value in test [2] is “reduced levels”. In addition, the “alpha-smooth muscle actin levels (Western blot)” value in test [3] is on record as “reduced expression; also recorded: reduced levels”.
